Patent publication US10710979B2, “EGFR kinase inhibitor and preparation method and use thereof” (ZHEJIANG BOSSAN PHARMACEUTICAL CO. LTD., priority 2015, dated 2020)

Key:
Assay type in all cases: cell-based
[1] = system: human lung cancer cells H1975; experiment: Effect of compounds on proliferation of tumor cells (MTT), H1975; conditions: Homo sapiens, NCI-H1975; H1975 cells, 72 hours, MTT
Protocol: (§1) Human lung cancer cells H1975, H522, human hepatoma cell HepG2, human melanoma cell A375, human epidermal cancer cell A431, and human colon cancer cells COLO205 were cultivated. The cells were collected when they have grown to logarithmic growth phase, and centrifuged at 1000 rpm for 5 min, from which the supernatant was discarded, and the rest was suspended with appropriate amount of medium, and the concentration of cells was adjusted to 2.5-5.5×10^4/ml (once it was 3.0-5.5×10^4/ml). The cell suspension was inoculated into a 96-well cell culture plate with 100 μl per well, and placed in a cell incubator (37° C., 5% CO2) for 24 hours, and then 100 μl of the drug diluted in the cell culture medium was added to each well of the drug group. Three duplicate wells were set for each drug, and the negative control group was medium containing 0.5% DMSO. After being incubated for 72 hours in the incubator, 20 μl of MTT (5 mg/ml) was added to each well, which was placed under 37° C. for 3 hours. 150 μl of DMSO was added to each well and shaken at 37° C. for 5 mins, and absorbance (OD) was determined at 492 nm. The Prism Graphpad statistical software was used to calculate IC50 values.

[2] = system: human hepatoma cell HepG2; experiment: Effect of compounds on proliferation of tumor cells (MTT), HepG2; conditions: 72 hours
Protocol: as §1

[3] = system: human melanoma cell A375; experiment: Effect of compounds on proliferation of tumor cells (MTT), A375; conditions: A-375, 72 hours
Protocol: as §1

[4] = system: human epidermal cancer cell A431; experiment: Effect of compounds on proliferation of tumor cells (MTT), A431; conditions: A-431, 72 hours
Protocol: as §1

[5] = system: human lung cancer cells H522; experiment: Effect of compounds on proliferation of tumor cells (MTT), H522; conditions: NCI-H522, 72 hours
Protocol: as §1

[6] = system: human colon cancer cells COLO205; experiment: Effect of compounds on proliferation of tumor cells (MTT), COLO205; conditions: COLO 205, 72 hours
Protocol: as §1

Compound | IC50 [1] [µM] | IC50 [2] [µM] | IC50 [3] [µM] | IC50 [4] [µM] | IC50 [5] [µM] | IC50 [6] [µM]
C=CC(=O)Nc1cccc(Nc2nc(Nc3ccc(N4CCNCC4)nc3OC)ncc2C(F)(F)F)c1 [ES-069] | 0.224 | 15.8 | 2.42 | 5.26 |  | 
C=CC(=O)Nc1cccc(Nc2nc(Nc3cnc(N4CCN(C(=O)OC(C)(C)C)CC4)cc3OC)ncc2C(F)(F)F)c1 [ES-073] | 0.214 | 1.95 | 15 | 7.08 |  | 
C=CC(=O)Nc1cccc(Nc2nc(Nc3cnc(N4CCN(C(C)=O)CC4)cc3OC)ncc2C(F)(F)F)c1 [ES-074] | 0.179 | 6.88 | 10.3 | 3.5 |  | 
C=CC(=O)Nc1cccc(Nc2nc(Nc3ccc(NC4CCN(C(C)=O)C4)nc3OC)ncc2C(F)(F)F)c1 (stereo not shown) [ES-123] | 0.15 | 9.2 | 8.94 | 4.62 | 2.69 | 4.62
C=CC(=O)Nc1cccc(Nc2nc(Nc3ccc(NC4CCN(C(=O)C5COC5)C4)nc3OC)ncc2C(F)(F)F)c1 (stereo not shown) [ES-125] | 0.149 | 16.8 | 12.2 | 5.04 | 3.96 | 5.56
C=CC(=O)Nc1cccc(Nc2nc(Nc3ccc(N4CCN(S(=O)(=O)N(C)C)CC4)nc3OC)ncc2C(F)(F)F)c1 [ES-132] | 0.23 | 4.14 | 4.42 | 2.62 | 2.9 | 3.78
C=CC(=O)Nc1cccc(Nc2nc(Nc3ccc(N4CCN(S(=O)(=O)NC)CC4)nc3OC)ncc2C(F)(F)F)c1 [ES-133] | 0.43 | 13.2 | 12.5 | 5.68 | 3.39 | 5.66
C=CC(=O)Nc1cccc(Nc2nc(Nc3ccc(N4CCN(C(=O)OCC)CC4)nc3OC)ncc2C(F)(F)F)c1 [ES-136] | 0.175 | 2.05 | 1.04 | 0.768 | 1.59 | 3.59
C=CC(=O)Nc1cccc(Nc2nc(Nc3ccc(N4CCN(C(=O)CC(C)(C)C)CC4)nc3OC)ncc2C(F)(F)F)c1 [ES-138] | 0.254 | 3.07 | 3.79 | 2.91 | 5.89 | 4.08
C=CC(=O)Nc1cccc(Nc2nc(Nc3ccc(N4CCN(C(=O)C(C)(C)C)CC4)nc3OC)ncc2C(F)(F)F)c1 [ES-139] | 1.65 | 3.86 | 9.47 | 4.54 | 2.71 | 3.6
C=CC(=O)Nc1cccc(Nc2nc(Nc3ccc(N4CCN(C(=O)COC(C)=O)CC4)nc3OC)ncc2C(F)(F)F)c1 [ES-140] | 0.27 | 5.87 | 6.46 | 2.08 | 2.28 | 3.16
C=CC(=O)Nc1cccc(Nc2nc(Nc3ccc(N4CCN(S(=O)(=O)CC)CC4)nc3OC)ncc2C(F)(F)F)c1 [ES-143] | 0.48 | 0.401 | 2.02 | > 100 | 1.07 | 2.15
C=CC(=O)Nc1cccc(Nc2nc(Nc3ccc(N4CCN(S(=O)(=O)CCC)CC4)nc3OC)ncc2C(F)(F)F)c1 [ES-144] | 0.133 | 0.101 | 1.51 | 2.18 | 0.399 | 1.46
C=CC(=O)Nc1cccc(Nc2nc(Nc3ccc(N4CCN(S(=O)(=O)C(C)C)CC4)nc3OC)ncc2C(F)(F)F)c1 [ES-145] | 0.542 | 33.3 | 77.9 | 13.5 | 18 | 37.6
C=CC(=O)Nc1cccc(Nc2nc(Nc3ccc(N(C)C4CCN(C(C)=O)C4)nc3OC)ncc2C(F)(F)F)c1 (stereo not shown) [ES-147] | 0.464 | 4.28 | 4.2 | 2.21 | 1.74 | 4.29
C=CC(=O)Nc1cccc(Nc2nc(Nc3ccc(N(C)C4CCN(C(=O)N(C)C)C4)nc3OC)ncc2C(F)(F)F)c1 (stereo not shown) [ES-151] | 0.132 | 4.78 | 4.47 | 6.74 | 3.13 | 6.07
C=CC(=O)Nc1cccc(Nc2nc(Nc3cnc(N4CCN(C(=O)OC(C)(C)C)CC4)nc3OC)ncc2C(F)(F)F)c1 [ES-159] | 0.649 | 2.23 | 49.9 | 37 | 3.13 | 1.86
C=CC(=O)Nc1cccc(Nc2nc(Nc3cnc(N4CCN(C(C)=O)CC4)nc3OC)ncc2C(F)(F)F)c1 [ES-160] | 0.69 | 5.79 | > 100 | 7.21 | 3.56 | 5.08

Stronger by IC50 [1], values ahead:

IC50 [1] [µM] | IC50 [2] [µM] | IC50 [3] [µM] | IC50 [4] [µM] | IC50 [5] [µM] | IC50 [6] [µM] | Compound
0.111 | 7.22 | 4.95 | 1.75 |  |  | C=CC(=O)Nc1cccc(Nc2nc(Nc3ccc(N4CCN(C(=O)OC(C)(C)C)CC4)nc3OC)ncc2C(F)(F)F)c1 [ES-070]
0.0557 | 3.73 | 6.26 | 2.09 | 1.25 | 2.21 | C=CC(=O)Nc1cccc(Nc2nc(Nc3ccc(NC4CCN(CCF)C4)nc3OC)ncc2C(F)(F)F)c1 (stereo not shown) [ES-124]
0.0356 | 0.794 | 4.59 | 2.25 | 1.77 | 3.35 | C=CC(=O)Nc1cccc(Nc2nc(Nc3ccc(N4CCN(C(=O)C5CC5)CC4)nc3OC)ncc2C(F)(F)F)c1 [ES-130]
0.0579 | 3.07 | 4.04 | 3.82 | 2.4 | 5.33 | C=CC(=O)Nc1cccc(Nc2nc(Nc3ccc(N4CCN(C(=O)N(C)C)CC4)nc3OC)ncc2C(F)(F)F)c1 [ES-131]
0.0691 | 0.399 | 3.36 | 1.72 | 1.64 | 2.95 | C=CC(=O)Nc1cccc(Nc2nc(Nc3ccc(N4CCN(S(=O)(=O)C5CC5)CC4)nc3OC)ncc2C(F)(F)F)c1 [ES-134]
0.11 | 0.329 | 1.5 | 4.43 | 3.25 | 8.87 | C=CC(=O)Nc1cccc(Nc2nc(Nc3ccc(N4CCN(C(=O)C(F)(F)F)CC4)nc3OC)ncc2C(F)(F)F)c1 [ES-135]
0.0211 | 2.69 | 3.58 | 2.27 | 2.29 | 4.12 | C=CC(=O)Nc1cccc(Nc2nc(Nc3ccc(N4CCN(C(=O)CC)CC4)nc3OC)ncc2C(F)(F)F)c1 [ES-137]
0.0552 | 4.05 | 4.5 | 0.72 | 2.34 | 4.25 | C=CC(=O)Nc1cccc(Nc2nc(Nc3ccc(N4CCN(C(=O)C(C)C)CC4)nc3OC)ncc2C(F)(F)F)c1 [ES-141]
0.08 | 1.01 | 4.4 | 1.22 | 0.826 | 2.96 | C=CC(=O)Nc1cccc(Nc2nc(Nc3ccc(N4CCN(S(C)(=O)=O)CC4)nc3OC)ncc2C(F)(F)F)c1 [ES-142]
0.046 | 13 | 12.2 | 3.46 | 3 | 8.71 | C=CC(=O)Nc1cccc(Nc2nc(Nc3ccc(NC4CCN(C)C4)nc3OC)ncc2C(F)(F)F)c1 (stereo not shown) [ES-146]
0.032 | 4.53 | 5.87 | 2.5 | 1.56 | 5 | C=CC(=O)Nc1cccc(Nc2nc(Nc3ccc(N(C)C4CCN(CCF)C4)nc3OC)ncc2C(F)(F)F)c1 (stereo not shown) [ES-148]
0.0491 | 5.23 | 6.71 | 3.92 | 3.1 | 5.07 | C=CC(=O)Nc1cccc(Nc2nc(Nc3ccc(N(C)C4CCN(C(=O)C5COC5)C4)nc3OC)ncc2C(F)(F)F)c1 (stereo not shown) [ES-149]
0.0232 | 3.27 | 6.22 | 2.05 | 1.51 | 5.15 | C=CC(=O)Nc1cccc(Nc2nc(Nc3ccc(N(C)C4CCN(C)C4)nc3OC)ncc2C(F)(F)F)c1 (stereo not shown) [ES-150]
0.0872 | 1.38 | 5.46 | 1.81 | 0.655 | 1.79 | C=CC(=O)Nc1cccc(Nc2nc(Nc3ccc(N4CCN(C(C)=O)CC4)nc3)ncc2C(F)(F)F)c1 [ES-157]
0.107 | 3.42 | 3.76 | 1.07 | 0.735 | 1.93 | C=CC(=O)Nc1cccc(Nc2nc(Nc3ccc(N4CCN(C(=O)N(C)C)CC4)nc3)ncc2C(F)(F)F)c1 [ES-158]
0.0868 | 6.24 | 7.86 | 2.32 | 2.75 | 4.14 | C=CC(=O)Nc1cccc(Nc2nc(Nc3cnc(N4CCN(C)CC4)nc3OC)ncc2C(F)(F)F)c1 [ES-161]
